Blank lines part the entries; values can stand above or below the compound they belong to.
How the values were obtained:
[1] = biological target: T1, von Hippel-Lindau disease tumor suppressor/Epidermal growth factor receptor (Homo sapiens, UniProt P00533+P40337); test: Protac activity at VHL/EGFR deletion19 mutant in human HCC827 cells assessed as induction of protein degradation; format: cell-based
[2] = tested on: von Hippel-Lindau disease tumor suppressor/Epidermal growth factor receptor (Homo sapiens), P00533+P40337 [UNDEFINED MUTATION]; test: Protac activity at VHL/EGFR deletion19 mutant in human HCC827 cells assessed as induction of protein degradation by measuring maximal efficacy relative to control; format: cell-based
Chain of von Hippel-Lindau disease tumor suppressor/Epidermal growth factor receptor (Homo sapiens), P00533+P40337 [UNDEFINED MUTATION] (P00533 whole entry, looked up, stated change not applied): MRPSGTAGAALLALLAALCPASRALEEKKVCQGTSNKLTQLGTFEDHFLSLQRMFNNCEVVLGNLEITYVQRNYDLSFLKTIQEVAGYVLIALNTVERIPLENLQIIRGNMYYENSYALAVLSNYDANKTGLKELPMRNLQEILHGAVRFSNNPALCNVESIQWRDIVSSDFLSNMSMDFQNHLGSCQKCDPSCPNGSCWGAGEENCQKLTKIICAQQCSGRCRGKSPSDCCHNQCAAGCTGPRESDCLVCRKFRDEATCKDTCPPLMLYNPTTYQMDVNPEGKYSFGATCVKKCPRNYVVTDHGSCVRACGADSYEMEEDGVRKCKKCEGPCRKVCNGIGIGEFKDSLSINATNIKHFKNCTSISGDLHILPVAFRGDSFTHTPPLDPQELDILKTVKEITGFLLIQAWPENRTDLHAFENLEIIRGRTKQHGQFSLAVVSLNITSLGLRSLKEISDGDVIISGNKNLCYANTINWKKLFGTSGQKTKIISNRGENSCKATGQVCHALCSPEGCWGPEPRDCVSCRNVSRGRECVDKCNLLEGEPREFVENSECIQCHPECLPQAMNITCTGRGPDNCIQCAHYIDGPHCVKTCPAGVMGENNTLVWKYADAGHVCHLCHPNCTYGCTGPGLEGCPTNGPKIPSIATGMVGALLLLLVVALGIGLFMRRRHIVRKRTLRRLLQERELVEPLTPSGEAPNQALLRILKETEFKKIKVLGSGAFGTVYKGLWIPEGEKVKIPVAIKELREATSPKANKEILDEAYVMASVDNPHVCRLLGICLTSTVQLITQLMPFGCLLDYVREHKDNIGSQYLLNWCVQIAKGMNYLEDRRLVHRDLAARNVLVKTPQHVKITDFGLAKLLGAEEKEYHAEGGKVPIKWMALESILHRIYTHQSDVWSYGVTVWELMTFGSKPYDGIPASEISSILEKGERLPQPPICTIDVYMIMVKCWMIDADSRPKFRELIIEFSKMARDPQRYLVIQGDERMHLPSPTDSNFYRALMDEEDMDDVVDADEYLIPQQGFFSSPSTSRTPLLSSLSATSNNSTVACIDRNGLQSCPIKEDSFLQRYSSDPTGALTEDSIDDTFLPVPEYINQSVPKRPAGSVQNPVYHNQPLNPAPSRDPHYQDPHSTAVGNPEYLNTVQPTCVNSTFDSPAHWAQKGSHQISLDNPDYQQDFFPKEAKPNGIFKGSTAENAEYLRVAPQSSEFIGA
Chain of von Hippel-Lindau disease tumor suppressor/Epidermal growth factor receptor (Homo sapiens), P00533+P40337 [UNDEFINED MUTATION] (P40337 whole entry, looked up, stated change not applied): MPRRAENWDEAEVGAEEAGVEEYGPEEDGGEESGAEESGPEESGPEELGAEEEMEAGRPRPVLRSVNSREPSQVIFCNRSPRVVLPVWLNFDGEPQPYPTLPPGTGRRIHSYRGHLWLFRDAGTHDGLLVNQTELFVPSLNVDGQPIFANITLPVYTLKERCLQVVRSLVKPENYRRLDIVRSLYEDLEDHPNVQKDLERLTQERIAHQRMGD

[3] = biological target: Epidermal growth factor receptor (Homo sapiens, UniProt P00533); test: Inhibition of wild type EGFR (unknown origin) preincubated for 5 mins followed by substrate and ATP addition and further incubated for 30 mins by HTRF assay
[4] = biological target: Epidermal growth factor receptor (Homo sapiens, UniProt P00533, T790M)
[5] = biological target: T2, Protein cereblon/Epidermal growth factor receptor (Homo sapiens, UniProt P00533+Q96SW2); test: Protac activity at CRBN/wild type EGFR in human A549 cells assessed as induction of EGFR degradation at 100 nM measured after 72 hrs by Western blot analysis relative to control; format: cell-based
[6] = biological target: T2, Protein cereblon/Epidermal growth factor receptor; test: Protac activity at CRBN/wild type EGFR in human A549 cells assessed as induction of EGFR degradation incubated for 48 hrs by Western blot analysis; format: cell-based
Target sequence in this assay (P00533 whole entry): as the sequence (P00533 whole entry, looked up, stated change not applied) above
Target sequence in this assay (Q96SW2 whole entry): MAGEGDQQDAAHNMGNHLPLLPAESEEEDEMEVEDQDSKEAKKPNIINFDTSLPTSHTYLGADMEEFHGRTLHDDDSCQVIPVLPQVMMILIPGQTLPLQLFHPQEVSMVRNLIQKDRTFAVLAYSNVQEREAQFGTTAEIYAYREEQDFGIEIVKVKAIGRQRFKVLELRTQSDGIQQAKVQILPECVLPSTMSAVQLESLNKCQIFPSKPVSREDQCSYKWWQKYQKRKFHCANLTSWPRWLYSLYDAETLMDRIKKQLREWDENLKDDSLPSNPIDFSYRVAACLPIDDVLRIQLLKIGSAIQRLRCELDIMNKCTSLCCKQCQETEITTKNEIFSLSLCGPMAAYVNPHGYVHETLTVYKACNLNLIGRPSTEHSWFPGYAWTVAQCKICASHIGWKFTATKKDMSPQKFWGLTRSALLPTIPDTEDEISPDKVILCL

[7] = biological target: T1, von Hippel-Lindau disease tumor suppressor/Epidermal growth factor receptor; test: Protac activity at VHL/EGFR deletion19 mutant in human HCC827 cells assessed as induction of protein degradation incubated for 24 hrs by immunoblotting analysis; format: cell-based
[8] = biological target: von Hippel-Lindau disease tumor suppressor/Epidermal growth factor receptor (Homo sapiens, UniProt P00533+P40337, L858R); test: Protac activity at VHL/EGFR L858R mutant in human NCI-H3255 cells assessed as induction of protein degradation incubated for 24 hrs by immunoblotting analysis; format: cell-based
[9] = tested on: von Hippel-Lindau disease tumor suppressor/Epidermal growth factor receptor (Homo sapiens), P00533+P40337 [UNDEFINED MUTATION]; test: Protac activity at VHL/EGFR deletion19 mutant in human HCC827 cells assessed as induction of protein degradation by measuring maximal efficacy incubated for 24 hrs by immunoblotting analysis relative to control; format: cell-based
[10] = tested on: von Hippel-Lindau disease tumor suppressor/Epidermal growth factor receptor (Homo sapiens), P00533+P40337 [L858R]; test: Protac activity at VHL/EGFR L858R mutant in human NCI-H3255 cells assessed as induction of protein degradation by measuring maximal efficacy incubated for 24 hrs by immunoblotting analysis relative to control; format: cell-based
[11] = Oral bioavailability in mouse at 10 mg/kg; format: ADME, organism-based; details: in vivo
[12] = tested on: BaF3; test: Antitumor activity against mouse BaF3 cells expressing EGFR deletion19/T790M/C797S triple mutant implanted in CDX BALB/c nude mouse model assessed as reduction in tumor volume at 40 mg/kg, po relative to control; format: functional; design: scale not given: the % may be the effect or the level left
[13] = tested on: BaF3; test: Antitumor activity against mouse BaF3 cells expressing EGFR deletion19/T790M/C797S triple mutant implanted in […] BALB/c nude mouse model assessed as reduction in tumor volume at 40 mg/kg, po relative to control; format: functional; design: scale not given: the % may be the effect or the level left
[14] = tested on: Protein cereblon/Epidermal growth factor receptor (Homo sapiens), P00533+Q96SW2 [L858R,T790M]; test: Protac activity at CRBN/EGFR L858R/T790M double mutant in mouse BaF3 cells assessed as induction of protein degradation at 0.1 uM measured after 24 hrs by Western blot analysis relative to control; format: cell-based

T1 sequence (P00533 25-1210 limits assumed, stated change not applied): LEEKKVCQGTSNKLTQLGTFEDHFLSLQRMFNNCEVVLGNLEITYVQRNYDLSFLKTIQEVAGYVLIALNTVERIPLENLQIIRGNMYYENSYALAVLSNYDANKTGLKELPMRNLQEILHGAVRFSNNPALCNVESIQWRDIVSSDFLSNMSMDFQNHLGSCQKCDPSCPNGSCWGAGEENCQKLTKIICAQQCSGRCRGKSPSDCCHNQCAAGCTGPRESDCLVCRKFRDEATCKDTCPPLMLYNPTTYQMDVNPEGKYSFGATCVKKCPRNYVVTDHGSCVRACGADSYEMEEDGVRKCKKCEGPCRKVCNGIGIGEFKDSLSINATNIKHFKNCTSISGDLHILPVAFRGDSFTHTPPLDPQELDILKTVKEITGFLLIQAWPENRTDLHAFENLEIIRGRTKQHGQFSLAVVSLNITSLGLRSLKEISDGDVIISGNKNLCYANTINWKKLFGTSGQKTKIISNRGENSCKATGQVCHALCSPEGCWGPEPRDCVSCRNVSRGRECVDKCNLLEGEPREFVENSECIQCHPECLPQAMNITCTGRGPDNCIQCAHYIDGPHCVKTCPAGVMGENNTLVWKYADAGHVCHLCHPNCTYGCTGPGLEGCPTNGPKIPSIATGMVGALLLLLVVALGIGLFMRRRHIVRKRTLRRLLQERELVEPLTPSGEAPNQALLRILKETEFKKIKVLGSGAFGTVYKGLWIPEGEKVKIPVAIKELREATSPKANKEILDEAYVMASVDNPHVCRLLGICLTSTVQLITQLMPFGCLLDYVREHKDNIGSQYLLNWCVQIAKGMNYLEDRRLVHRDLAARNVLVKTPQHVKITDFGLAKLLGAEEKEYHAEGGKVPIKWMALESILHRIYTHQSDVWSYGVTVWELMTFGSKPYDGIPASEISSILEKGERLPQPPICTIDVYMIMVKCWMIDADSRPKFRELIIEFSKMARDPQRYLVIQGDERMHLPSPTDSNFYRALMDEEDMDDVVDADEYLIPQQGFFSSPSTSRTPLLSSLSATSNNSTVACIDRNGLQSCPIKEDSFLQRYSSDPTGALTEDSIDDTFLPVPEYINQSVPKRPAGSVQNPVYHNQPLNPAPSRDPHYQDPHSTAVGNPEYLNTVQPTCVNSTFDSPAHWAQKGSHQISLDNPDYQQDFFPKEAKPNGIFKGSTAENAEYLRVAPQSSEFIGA
T1 sequence (P40337 whole entry, stated change not applied): as the sequence (P40337 whole entry, looked up, stated change not applied) above

- IC50 [3]: 100 nM
- IC50 [4]: 4020 nM
SMILES: CN1C(=O)C(C(=O)NN)N(C)c2ccccc21 (centres undefined)

- Emax [5]: 96%
- EC50 [6]: 32.9 nM
SMILES: Cn1c(=O)c(C(=O)NNCCOCCOCC(=O)Nc2cccc3c2C(=O)N(C2CCC(=O)NC2=O)C3=O)nc2ccccc21 (centres undefined)

- bioavailability [11]: 62.8%
SMILES: COc1cc(N2CCC(N3CCN(CCC#Cc4cccc5c4CN(C4CCC(=O)NC4=O)C5=O)CC3)CC2)ccc1Nc1ncc(Cl)c(Nc2ccccc2P(C)(C)=O)n1 (centres undefined)
- Activity [12]: 84%
- Activity [13]: 67%

Second part, the compound before the results:

SMILES: Cc1ncsc1-c1ccc(CNC(=O)[C@@H]2C[C@@H](O)CN2C[C@@H](NC(=O)CCCCCCCCCCn2cc(COc3cc4ncnc(Nc5ccc(F)c(Cl)c5)c4cc3NC(=O)/C=C/CN3CCCCC3)nn2)C(C)(C)C)cc1
- EC50 [1]: 3.57 nM
- Emax [2]: 91%

SMILES: COc1cc2ncnc(Nc3ccc(F)c(Cl)c3)c2cc1OCCCCCOCCOCCC(=O)N[C@H](C(=O)N1C[C@H](O)C[C@H]1C(=O)NCc1ccc(-c2scnc2C)cc1)C(C)(C)C
- EC50 [7]: 11.7 nM
- EC50 [8]: 22.3 nM
- Emax [9]: 98.9%
- Emax [10]: 96.6%

SMILES: O=C1CCC(N2C(=O)c3cccc(NCCOCCOCCOCCN4CCN(c5ccc(-c6ccc7c(c6)C(=O)N(C(C(=O)Nc6nccs6)c6ccccc6)C7)cn5)CC4)c3C2=O)C(=O)N1 (centres undefined)
- Emax [14]: 56%

From ChEMBL document CHEMBL5316348, “Targeting the Epidermal Growth Factor Receptor with Molecular Degraders: State-of-the-Art and Future Opportunities” (J Med Chem, 2023)
